Reference: PubChem BioAssay (NCI)
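Growth conditions: 96-well plates. Treatment: test compound, 48 hours, 5 concentrations. Analysis: linear interpolation between bracketing concentrations; unreached endpoints set to highest concentration. TGI marks complete inhibition of growth.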

Assays:
Assay in all cases: NCI-60 cell line screen, 48 h
[1] = test system: 786-0 renal
[2] = test system: A549 NSCLC
[3] = test system: ACHN renal
[4] = test system: CAKI-1 renal
[5] = test system: CCRF-CEM leukemia
[6] = test system: COLO 205 colon
[7] = test system: DU-145 prostate
[8] = test system: EKVX NSCLC
[9] = test system: HCC-2998 colon
[10] = test system: HCT-116 colon
[11] = test system: HCT-15 colon
[12] = test system: HL-60(TB) leukemia
[13] = test system: HOP-62 NSCLC
[14] = test system: HOP-92 NSCLC
[15] = test system: HS 578T breast
[16] = test system: HT29 colon
[17] = test system: IGROV1 ovarian
[18] = test system: K-562 leukemia
[19] = test system: KM12 colon
[20] = test system: LOX IMVI melanoma
[21] = test system: M14 melanoma
[22] = test system: MCF7 breast
[23] = test system: MDA-MB-231 breast
[24] = test system: MDA-MB-435
[25] = test system: MDA-N
[26] = test system: MOLT-4 leukemia
[27] = test system: NCI-H226 lung
[28] = test system: NCI-H23 lung
[29] = test system: NCI-H460 lung
[30] = test system: NCI-H522 lung
[31] = test system: NCI/ADR-RES ovarian
[32] = test system: OVCAR-3 ovarian
[33] = test system: OVCAR-4 ovarian
[34] = test system: OVCAR-5 ovarian
[35] = test system: OVCAR-8 ovarian
[36] = test system: PC-3 prostate
[37] = test system: RPMI-8226 leukemia
[38] = test system: RXF 393 renal
[39] = test system: SF-268 CNS
[40] = test system: SF-295 CNS
[41] = test system: SF-539 CNS
[42] = test system: SK-MEL-2 melanoma
[43] = test system: SK-MEL-28 melanoma
[44] = test system: SK-MEL-5 melanoma
[45] = test system: SK-OV-3 ovarian
[46] = test system: SN12C renal
[47] = test system: SNB-19 CNS
[48] = test system: SNB-75 CNS
[49] = test system: SR leukemia
[50] = test system: SW-620 colon
[51] = test system: T-47D breast
[52] = test system: TK-10 renal
[53] = test system: U251 CNS
[54] = test system: UACC-257 melanoma
[55] = test system: UACC-62 melanoma
[56] = test system: UO-31 renal

Measured: TGI

OC(c1ccoc1)c1cc2ccccc2s1 (stereo unspecified)
> 10 µM: [1] | [2] | [3] | [4] | [5] | [6] | [7] | [8] | [9] | [10] | [11] | [12] | [13] | [14] | [15] | [16] | [17] | [18] | [19] | [20] | [21] | [22] | [23] | [24] | [25] | [26] | [27] | [28] | [29] | [30] | [31] | [32] | [33] | [34] | [35] | [36] | [37] | [38] | [39] | [40] | [41] | [42] | [43] | [44] | [45] | [46] | [47] | [48] | [49] | [50] | [51] | [52] | [53] | [54] | [55] | [56]
